What all share (type): cell-based
One assay concerns ASPC-1 cells. Briefly: GI50 by MTT assay, Aspc-1 (Example 2). The note with it: Homo sapiens, ASPC1, read-out: GI50 concentration. The source says:
(§1) Material and Methods: RPMI-1640 DMEM, trypsin-EDTA, and penicillin-streptomycin are purchased from Invitrogen (Karlsruhe, Germany); FBS from PAN Biotech (Aidenbach, Germany); human recombinant PDGF, IGF-1 and FGF-2 from R&D Systems (Abingdon, United Kingdom), and EGF from Upstate Biotechnology (Hamburg, Germany). Phospho-PDGFR-beta (tyr857) and P-EGFR (tyr1173) polyclonal antibodies are purchased from Santa Cruz Biotechnology, Inc. (Santa Cruz, Calif., USA). Phospho-p44/42 MAPK (Thr202/Tyr204) antibodies are purchased from Cell Signaling Technology (Frankfurt, Germany), anti-rabbit IgG HRPO-linked antibodies and ECL immunoblotting detection reagents from Amersham Biosciences (Amersham Life Science, Amersham, UK), and anti-goat IgG-HPRO peroxidase linked antibodies from Santa Cruz Biotechnology, Inc. (Santa Cruz, Calif., USA). Complete mini-EDTA-free protease inhibitor cocktail tablets and Annexin-V-Fluos are purchased from Roche GmbH (Mannheim, Germany). All other reagents are from Sigma Chemical Company (Taufkirchen, Germany).
(§2) Cell culture and MTT assay: Human pancreatic cancer cell lines are routinely grown in DMEM (Colo-357 and Mia-PaCa-2) or RPMI (Aspc-1, BxPc-3, Capan-1, and T3M4) supplemented with 10% FBS, 100 U/ml penicillin, and 100 μg/ml streptomycin (complete medium). […] Formazan products are solubilized with acidic isopropanol, and the optical density is measured at 570 nm. […]
A general note: Formazan colour is commonly taken as a measure of viable cells.

The next assay deals with BxPc-3 cells. Briefly: GI50 by MTT assay, BxPc-3 (Example 2). The note with it: Homo sapiens, BxPc-3, complete medium (10% FBS), 48 h, read-out: GI50 concentration.
Excerpt: as §1, §2

Another assay has as its system T3M4 cells. Briefly: GI50 by MTT assay, T3M4 (Example 2). Conditions: Homo sapiens, T3M4, complete medium (10% FBS), 48 h, read-out: GI50 concentration.
Excerpt: as §1, §2

Structures are written as SMILES. Where two headings read alike, the source gives them in different places.

In the case of `Cc1ccc(NC(=O)c2ccc(CN3CCN(C)CC3)cc2)cc1Nc1nccc(-c2cccnc2)n1` [Compound I], the GI50 with ASPC-1 cells (Aspc-1, complete medium (10% FBS), 48 h, MTT) worked out at 31.5 µM; in the assay with ASPC-1 cells (Aspc-1, low serum conditions (1% FCS)) it was 20 µM; in the assay on BxPc-3 cells, 21 µM; in the assay on T3M4 cells it was 25 µM.

The values above are taken from patent publication US20060167006A1, “Method of treatment” (priority 2003, published 2006).
